Columns and labels:
glucocorticoid receptor = target: T1, glucocorticoid receptor (Homo sapiens, UniProt P04150); assay: Glucocorticoid Receptor Binding Assay ([3H]-dexamethasone, A549 cell extract); details: [3H]-dexamethasone binding, read-out: GR Ki
T1 construct: containing 50-200 ug of A549 cell extract and 1.86 nM [^3H]-dexamethasone; host or cells: A549 human lung epithelial cells (sonicated cell extract)
T1 sequence (P04150 1-777): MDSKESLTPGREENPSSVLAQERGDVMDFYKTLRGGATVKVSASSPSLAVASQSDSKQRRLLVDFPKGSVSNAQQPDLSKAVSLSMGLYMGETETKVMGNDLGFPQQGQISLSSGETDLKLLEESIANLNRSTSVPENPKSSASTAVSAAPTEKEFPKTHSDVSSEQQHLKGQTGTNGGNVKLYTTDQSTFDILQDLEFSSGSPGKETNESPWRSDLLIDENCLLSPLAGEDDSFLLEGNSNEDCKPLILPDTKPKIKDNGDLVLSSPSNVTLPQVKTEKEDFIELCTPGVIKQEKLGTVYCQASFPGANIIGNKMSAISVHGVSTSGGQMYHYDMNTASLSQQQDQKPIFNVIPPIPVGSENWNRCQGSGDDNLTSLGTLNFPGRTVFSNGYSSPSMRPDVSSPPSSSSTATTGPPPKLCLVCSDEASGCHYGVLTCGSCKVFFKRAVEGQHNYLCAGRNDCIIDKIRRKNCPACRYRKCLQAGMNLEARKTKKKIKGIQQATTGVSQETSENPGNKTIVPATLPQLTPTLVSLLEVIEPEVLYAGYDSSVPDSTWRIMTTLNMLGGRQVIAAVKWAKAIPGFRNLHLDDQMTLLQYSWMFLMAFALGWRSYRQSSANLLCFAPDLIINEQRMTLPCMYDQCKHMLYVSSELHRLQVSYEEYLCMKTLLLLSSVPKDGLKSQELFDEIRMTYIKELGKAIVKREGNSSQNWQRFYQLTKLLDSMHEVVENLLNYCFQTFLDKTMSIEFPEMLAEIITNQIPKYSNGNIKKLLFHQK
How it was run: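 A549 cell extract (50–200 ug) incubated with 1.86 nM [3H]-dexamethasone and test compound for 16 h at 4 °C in Tris-HCl pH 7.2 buffer with glycerol and molybdate. Unbound radioligand removed by dextran-coated charcoal, then supernatant bound counts measured by scintillation.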

human MR = target: T2, human MR (Homo sapiens, UniProt P08235); assay: Mineralocorticoid Receptor Binding Assay ([3H]-aldosterone); details: [3H]-aldosterone binding, human MR expressed in Sf9 cells; read-out: MR Ki
T2 construct: The full length human MR gene is cloned from a human kidney or human brain cDNA library; His tag from the pAcHLT vector (own knowledge); made in house; host or cells: Sf9 insect cells (baculovirus, pAcHLT transfer vector)
T2 sequence (P08235 1-984): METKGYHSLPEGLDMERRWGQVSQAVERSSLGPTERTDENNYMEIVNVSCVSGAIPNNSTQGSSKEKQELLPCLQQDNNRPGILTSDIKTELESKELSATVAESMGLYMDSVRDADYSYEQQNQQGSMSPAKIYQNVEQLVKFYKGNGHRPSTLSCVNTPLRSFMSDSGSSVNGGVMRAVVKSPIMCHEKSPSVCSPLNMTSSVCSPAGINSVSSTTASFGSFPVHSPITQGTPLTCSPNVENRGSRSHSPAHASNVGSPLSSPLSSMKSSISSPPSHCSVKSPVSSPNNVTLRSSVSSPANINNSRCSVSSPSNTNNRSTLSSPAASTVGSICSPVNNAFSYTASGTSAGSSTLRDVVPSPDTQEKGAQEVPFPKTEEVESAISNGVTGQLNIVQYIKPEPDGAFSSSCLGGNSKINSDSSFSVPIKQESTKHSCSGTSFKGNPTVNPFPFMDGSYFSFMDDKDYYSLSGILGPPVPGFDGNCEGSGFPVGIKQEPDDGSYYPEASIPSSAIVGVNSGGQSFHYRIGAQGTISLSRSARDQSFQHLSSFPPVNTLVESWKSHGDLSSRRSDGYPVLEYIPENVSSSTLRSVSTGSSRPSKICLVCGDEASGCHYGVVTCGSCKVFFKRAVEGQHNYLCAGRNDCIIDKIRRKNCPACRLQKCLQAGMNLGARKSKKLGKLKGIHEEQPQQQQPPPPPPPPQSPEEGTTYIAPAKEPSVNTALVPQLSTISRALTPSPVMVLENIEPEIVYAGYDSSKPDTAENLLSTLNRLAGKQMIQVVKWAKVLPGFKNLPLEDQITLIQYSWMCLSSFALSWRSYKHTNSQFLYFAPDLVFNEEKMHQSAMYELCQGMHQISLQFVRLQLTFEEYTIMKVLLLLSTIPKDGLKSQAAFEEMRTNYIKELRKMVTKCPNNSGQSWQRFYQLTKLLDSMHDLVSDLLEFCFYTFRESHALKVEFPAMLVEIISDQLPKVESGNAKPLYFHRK
How it was run: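 Lysate supernatant of Sf9 cells expressing full-length human MR (20-25 μg protein) was incubated with 0.5 nM [3H]-aldosterone and test compound in molybdate/Tris/phosphate/glycerol buffer, pH 7.5, ~16 h at 4 °C. Bound ligand was filtered and counted by scintillation; IC50 is the concentration halving [3H]-aldosterone binding.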

Structure (SMILES) | Ki (glucocorticoid receptor) | Ki (human MR)
O=C(CO)c1cccc(C=C2c3ccccc3CCc3cc(Cl)ccc32)c1 [Example 298] | < 10000 nM | < 500 nM
CS(=O)(=O)Nc1cccc(C=C2c3ccccc3CCc3cc(OCCN4CCOCC4)ccc32)c1 [Example 427] | < 10000 nM | < 500 nM
O=c1[nH]c2cc(/C=C3\c4ccc(F)cc4CCc4ncccc43)ccc2n1C1CC1 [Example 593] | < 10000 nM | < 500 nM
O=c1[nH]c2ccc(C=C3c4ccc(F)cc4COc4cc(F)ccc43)cc2[nH]1 [Example 644] | < 1000 nM | < 500 nM
O=c1[nH]c2ccc(C=C3c4ccccc4CCc4cc(F)cc(F)c43)cc2[nH]1 [Example 463] | < 10000 nM | < 500 nM
O=c1[nH]c2ccc(C=C3c4ccccc4CCc4ccccc43)cc2[nH]1 [Example 223, 5-(10,11-Dihydro-dibenzo[a,d]cyclohepten-5-ylidenemethyl)-l,3-dihydro-benzoimidazol-2-one] | < 10000 nM | < 500 nM
O=c1[nH]c2ccc(/C=C3\c4ccccc4COc4cc(C(F)(F)F)ccc43)cc2[nH]1 [Example 643] | < 10000 nM | < 500 nM
Cn1c(=O)[nH]c2cc(/C=C3\c4ccccc4COc4cc(F)ccc43)ccc21 [Example 635] | < 1000 nM | < 500 nM
O=c1[nH]c2ccc(/C=C3\c4ccccc4CCc4ncsc43)cc2[nH]1 [Example 561] | < 1000 nM | < 500 nM
CS(=O)(=O)Nc1cccc(/C=C2\c3ccccc3CCc3cc(-c4ccccc4)ccc32)c1 [Example 308] | < 10000 nM | < 500 nM
Oc1ccc(/C=C2/c3ccc(F)cc3CCc3ncccc32)cc1 [Example 529] | < 10000 nM | < 500 nM
CN(c1cccc(C=C2c3ccccc3CCc3cc(Cl)ccc32)c1)S(C)(=O)=O [Example 398] | < 500 nM | < 500 nM
CCC(=C1c2ccc(C)cc2CCc2cc(C)ccc21)c1cccc(NS(C)(=O)=O)c1 [Example 772] | < 500 nM | < 500 nM
N#CNc1cccc(C=C2c3ccc(F)cc3CCc3cc(F)ccc32)c1 [Example 385] | < 1000 nM | < 500 nM
CS(=O)(=O)Nc1cccc(CC2c3ccccc3CCc3cc(Cl)ccc32)c1 (racemic) [Example 207, N-[3-(2-Chloro-10,11-dihydro-5H-dibenzo[a,d]cycloheptenylmethyl)-phenyl]-methanesulfonamide] | < 500 nM | < 500 nM
O=S(=O)(Nc1cccc(/C=C2\c3ccccc3CSc3ccccc32)c1)C1CC1 [Example 698] | < 500 nM | < 1000 nM
CS(=O)(=O)Nc1cccc(/C=C2/c3ccc(Cl)cc3CCc3ncccc32)c1 [Example 569] | < 10000 nM | < 500 nM
COC(=O)c1ccc2c(c1)CCc1ccccc1/C2=C/c1cccc(NS(C)(=O)=O)c1 [Example 387] | < 500 nM | < 500 nM
CS(=O)(=O)Nc1cccc(/C=C2\c3ccccc3CCc3ncccc32)c1 [Example 253, (E)-N-[3-(10,11-Dihydro-benzo[4,5]cyclohepta[1,2-b]pyridin-5-ylidenemethyl)-phenyl]-methanesulfonamide] | < 500 nM | < 500 nM

Continued, values first:

Ki (glucocorticoid receptor) | Ki (human MR) | Structure (SMILES)
< 500 nM | < 500 nM | Cn1c(=O)[nH]c2cc(/C=C3/c4ccccc4CCc4cc(F)ccc43)ccc21 [Example 461]
< 500 nM | < 500 nM | COc1cccc2c1COc1ccccc1/C2=C\c1cccc(NS(C)(=O)=O)c1 [Example 707]
< 500 nM | < 500 nM | N#Cc1cccc2c1CCc1ccccc1/C2=C\c1cccc(O)c1 [Example 364]
< 500 nM | < 500 nM | CS(=O)(=O)Nc1cccc(/C=C2\c3ccccc3CCc3cc(N)ccc32)c1 [Example 407]
< 500 nM | < 500 nM | O=c1[nH]c2cc(C=C3c4ccccc4CCc4ccccc43)ccc2s1 [Example 467]
< 500 nM | < 500 nM | CS(=O)(=O)Nc1cccc(/C=C2/c3ccccc3CCc3cc(S(C)(=O)=O)ccc32)c1 [Example 393]
< 500 nM | < 500 nM | Cc1cccc2c1CCc1ccccc1/C2=C/c1cccc(NS(C)(=O)=O)c1 [Example 311]
< 500 nM | < 500 nM | C/C(=C1\c2ccc(C)cc2CCc2cc(F)ccc21)c1cccc(NS(C)(=O)=O)c1 [Example 831]
< 500 nM | < 500 nM | COc1ccc2c(c1)COc1ccccc1/C2=C\c1cccc(NS(C)(=O)=O)c1 [Example 705]
< 500 nM | < 500 nM | CS(=O)(=O)Nc1cccc(/C=C2/c3ccccc3CCc3cc(C(F)(F)F)ccc32)c1 [Example 390]
< 500 nM | < 500 nM | COc1ccc2c(c1)/C(=C\c1cccc(NS(C)(=O)=O)c1)c1ccccc1CC2 [Example 348]
< 500 nM | < 500 nM | CCCS(=O)(=O)Nc1cccc(C=C2c3ccccc3CCc3ccccc32)c1 [Example 104, Propane-1-sulfonic acid [3-(10,11-dihydro-dibenzo[a,d]cyclohepten-5-ylidenemethyl)-phenyl]-amide]
< 500 nM | < 500 nM | CS(=O)(=O)Nc1cccc(/C=C2/c3ccccc3COc3ccccc32)c1 [Example 268, N-[3-(6H-Dibenzo[b,e]oxepin-11-ylidenemethyl)-phenyl]-methanesulfonamide]
< 500 nM | < 500 nM | CS(=O)(=O)Nc1csc(C=C2c3ccccc3CCc3ccccc32)n1 [Example 446]
< 500 nM | < 500 nM | CC(C)Cn1c(=O)[nH]c2cc(/C=C3\c4ccccc4COc4cc(F)ccc43)ccc21 [Example 710]
< 500 nM | < 500 nM | C/C(=C1/c2ccc(Cl)cc2COc2cc(F)ccc21)c1cccc(NS(C)(=O)=O)c1 [Example 803]
< 500 nM | < 500 nM | COC(=O)c1ccc2c(c1)CCc1ccccc1/C2=C\c1cccc(NS(C)(=O)=O)c1 [Example 386]
< 500 nM | < 500 nM | COc1ccc2c(c1)SCc1ccccc1C2=Cc1cccc(NS(C)(=O)=O)c1 [Example 747]
< 500 nM | < 500 nM | O=c1[nH]c2cc(/C=C3\c4ccccc4CCc4ncsc43)ccc2o1 [Example 562]
< 500 nM | < 500 nM | Oc1cccc(/C=C2\c3ccccc3CCc3cc(C(F)F)ccc32)c1 [Example 335]
< 500 nM | < 500 nM | CS(=O)(=O)Nc1cccc(/C=C2/c3cccnc3CCc3cccc(F)c32)c1 [Example 557]
< 500 nM | < 500 nM | CS(=O)(=O)Nc1cccc(/C=C2/c3ccccc3CCc3ccc(O)cc32)c1 [Example 350]
< 500 nM | < 500 nM | Oc1cccc(C=C2c3ccc(Cl)cc3CCc3cc(Cl)ccc32)c1 [Example 183, 3-(2,8-Dichloro-10,11-dihydro-dibenzo[a,d]cyclohepten-5-ylidenemethyl)-phenol]

— patent publication US20060063759A1, “Tricyclic steroid hormone nuclear receptor modulators” (priority 2002, published 2006)
